Source: paper PMC9243654 (Frontiers in Nutrition, 2022)
Where two headings read alike, the source gives them in different places. Values belong to the molecule of their own block, whether it stands above or below them.

Tests used:
in vitro = conditions: for PAMPA-BBB log Pe (cm s−1): pH 7.4
Experimental: The PAMPA-BBB assay was conducted according to the methodology followed by Di et al., with some modifications as described below ([15]). First, the BBB solution was prepared by dissolving 8 mg of PBL and 4 mg of cholesterol in 600 μl of n-dodecane. The initial donor solution was prepared by mixing 1 ml of extract (10 mg ml^−1 in EtOH) with 1 ml of buffer (PBS, pH = 7.4, 10 mM). The filter membrane of the donor plate was carefully coated with 5 μl of BBB solution. The acceptor plate was filled with 350 μl of buffer, and the donor plate was carefully assembled over the acceptor plate like a “sandwich.” Finally, the donor plate was filled with 350 μl of donor solution, covered, and incubated for 4 h at 37°C in the dark. After incubation time, 300 μl of the solution was taken from both plates, transferred to separate vials, and dried in the SpeedVac system at 40°C and 13 mbar pressure. Dried acceptor and donor solution were dissolved in 50 μl of pure EtOH before subjecting to UHPLC-Q-TOF-MS analysis. Permeability across in vitro BBB of the bioactive compound was measured according to Equation (1) ([25]), with some modifications in concentration rates.
(1) Pe=-ln[1-CA(t)/Ce]/A^*(1/VD+1/VA)^*t
Cequilibrium was calculated according to the following equation ([2]):
(2) Cequilibrium=[CD(t)*VD+CA(t)*VA]/(VD+VA)

[1] = ref PubChem database, cited from earlier work
[2] = compounds of RSFE extract, octanol-water partition coefficient
[3] = compound within LPLE (Nothofagus pumilio, lenga PLE extract), classes based on Könczöl et al.
[4] = compounds identified in LPLE extract
[5] = PAMPA, pH 7.4, PAMPA-BBB log Pe (cm s−1)

Cross BBB potential (in vitro; PAMPA): +++ | PAMPA-BBB log Pe (cm s−1) (in vitro; PAMPA, 4 h): −3.73 cm s−1
SMILES: CC/C=C/CC(O)C(O)/C=C/C(O)CCCCCCCC(=O)O (centres unmarked)
Log P [1, 2]: 2.6

Cross BBB potential (in vitro; PAMPA): +++ | PAMPA-BBB log Pe (cm s−1) (in vitro; PAMPA, 4 h): −4.22 cm s−1
SMILES: COc1ccc(-c2cc(=O)c3c(O)cc(OC)cc3o2)cc1 [4-Methoxytectochrysin]
Log P [1, 2]: 3.3

SMILES: C[C@]12C[C@@H](O)[C@H]3[C@@H](CC[C@]4(O)C[C@@H](O)CC[C@]34CO)[C@@]1(O)CC[C@@H]2c1ccc(=O)oc1 [11α,19-dihydroxytelocinobufagin]
Cross BBB potential (in vitro; compound within KD extract): - | Log P ([1]; compounds of KD extract): 3.63

Cross BBB potential (in vitro; PAMPA): +++ | PAMPA-BBB log Pe (cm s−1) (in vitro; PAMPA, 4 h): −4.06 cm s−1
SMILES: O=C(O)C[C@H]1CCC(=O)[C@@H]1C/C=C\CCO [12- Hydroxyjasmonic acid]
Log P [1, 2]: 0.4

SMILES: CC(C)c1cc2c(c(O)c1O)[C@@]13CCCC(C)(C)[C@@H]1C[C@@H]2OC3 [20-Deoxocarnosol]
Cross BBB potential (in vitro; compound within RSFE extract): - | Log P [1, 2]: 4.6

SMILES: O=C(O[C@@H]1Cc2c(O)cc(O)cc2O[C@@H]1c1ccc(O)c(O)c1)c1cc(O)c(O)c(O)c1 [(-)-Epicatechin gallate]
Cross BBB potential (in vitro; compound within ASFE extract): - | Cross BBB potential (in vitro; [3]): - | Log P [1, 4]: 1.5 | Log P ([1]; compounds of ASFE extract): 1.5

SMILES: C[C@@H]1O[C@@H](Oc2c(-c3ccc(O)cc3)oc3cc(O)cc(O)c3c2=O)[C@H](O)[C@H](O)[C@H]1O [Afzelin]
Cross BBB potential (in vitro; PAMPA): -

SMILES: C=C(C)[C@@H]1CC[C@]2(C(=O)O)CC[C@]3(C)[C@H](CC[C@@H]4[C@@]5(C)CC[C@H](O)[C@@](C)(CO)[C@@H]5CC[C@]43C)[C@@H]12 [Anemosapogenin]
Cross BBB potential (in vitro; PAMPA): ++ (key: -: not detected in acceptor; +: log Pe > −6.5; ++: log Pe > −5.5; +++: log Pe > −4.5) | PAMPA-BBB log Pe (cm s−1) (in vitro; PAMPA): −5.26 cm s−1 | Log P [1, 2]: 7.5

Cross BBB potential (in vitro; compound within ASFE extract): - | Cross BBB potential (in vitro; [3]): -
SMILES: O=C1c2c(O)cc(O)cc2O[C@H](c2ccc(O)cc2)[C@H]1O [Aromadendrin]
Log P [1, 4]: 1.8 | Log P ([1]; compounds of ASFE extract): 1.8

SMILES: CC(C)=CCc1cc(/C=C/C(=O)O)cc(CC=C(C)C)c1O [Artepillin C]
Cross BBB potential (in vitro; PAMPA): +++ | PAMPA-BBB log Pe (cm s−1) (in vitro; PAMPA, 4 h): −4.42 cm s−1 | Log P [1, 2]: 5.4

Cross BBB potential (in vitro; PAMPA): +++ | Papp at 4 h (in vitro; [5]): 64.6 ×10⁻⁶ cm/s
SMILES: C[C@H]1[C@H](C)CC[C@]2(C(=O)O)CC[C@]3(C)C(=CC[C@@H]4[C@@]5(C)C[C@@H](O)[C@H](O)[C@@](C)(CO)[C@@H]5CC[C@]43C)[C@H]12 [Asiatic acid]

SMILES: CC(=O)O[C@H]1C[C@@H](O)[C@]2(C=O)[C@H]3CC[C@]4(C)[C@@H](c5ccc(=O)oc5)CC[C@]4(O)[C@@H]3CC[C@]2(O)C1 [Bersaldegenin-3-acetate]
Cross BBB potential (in vitro; compound within KD extract): - | Log P ([1]; compounds of KD extract): 1.3

SMILES: C[C@]12CC[C@H]3[C@@H](CC[C@]4(O)C[C@@H](O)C[C@@H](O)[C@]34C=O)[C@@]1(O)CC[C@@H]2c1ccc(=O)oc1 [Bersaldegenin]
Cross BBB potential (in vitro; compound within KD extract): - | Log P ([1]; compounds of KD extract): 0.2

Cross BBB potential (in vitro; PAMPA): + | Papp at 4 h (in vitro; [5]): 0.229 ×10⁻⁶ cm/s
SMILES: C=C(C)[C@@H]1CC[C@]2(C(=O)O)CC[C@]3(C)[C@H](CC[C@@H]4[C@@]5(C)CC[C@H](O)C(C)(C)[C@@H]5CC[C@]43C)[C@@H]12 [Betulinic acid]
Log P [1, 2]: 8.2

SMILES: C[C@@]12O[C@H]3C[C@@H](O1)[C@]1(C=O)[C@H]4[C@H](O)C[C@]5(C)[C@@H](c6ccc(=O)oc6)CC[C@]5(O)[C@@H]4CC[C@@]1(C3)O2 [Bryophyllin A]
Cross BBB potential (in vitro; compound within KD extract): - | Log P ([1]; compounds of KD extract): 0.6

SMILES: CC(=O)O[C@@H]1C[C@H](O)C[C@@]2(O)CC[C@@H]3[C@@H]4[C@@H](C[C@]5(C)[C@@H](c6ccc(=O)oc6)CC[C@]35O)O[C@H](O)[C@]412 [Bryophyllin B]
Cross BBB potential (in vitro; compound within KD extract): - | Log P ([1]; compounds of KD extract): 0.6

SMILES: O=C(/C=C/c1ccc(O)c(O)c1)c1ccc(O)cc1O [Butein]
Papp at 4 h (in vitro; PAMPA, pH 7.4, PAMPA-BBB log Pe (cm s−1), compound within ASFE extract, 4 h, 37°C, PBS pH 7.4): 2.19 ×10⁻⁶ cm/s | Papp at 4 h (in vitro; PAMPA, pH 7.4, PAMPA-BBB log Pe, compound within LPLE (Nothofagus pumilio, lenga PLE extract), N.D = not detected in acceptor): 16.6 ×10⁻⁶ cm/s | Cross BBB potential (in vitro; compound within ASFE extract): + (log Pe > −6.5) | Cross BBB potential (in vitro; [3]): ++ (log Pe > −5.5) | Log P [1, 4]: 2.8 | Log P ([1]; compounds of ASFE extract): 2.8

SMILES: O=C(O)/C=C/c1ccc(O)c(O)c1 [Caffeic acid]
Cross BBB potential (in vitro; PAMPA): -

SMILES: O=C(/C=C/c1ccc(O)c(O)c1)O[C@@H]1C[C@](O)(C(=O)O)C[C@@H](O)[C@H]1O [Caffeoylquinic acid (chlorogenic acid), Caffeoylquinic acid]
Papp at 4 h (in vitro; [5]): 10.2 ×10⁻⁶ cm/s

SMILES: O=C(/C=C/c1ccc(O)c(O)c1)O[C@@H](C(=O)O)[C@@H](O)C(=O)O [Caftaric acid]
Cross BBB potential (in vitro; PAMPA): - | Log P ([1]; compounds of ASFE extract): 0.1

SMILES: CC(C)c1cc2c(c(O)c1O)[C@@]1(C(=O)O)CCCC(C)(C)[C@@H]1CC2 [Carnosic acid]
Cross BBB potential (in vitro; PAMPA): ++ (key: -: not detected in acceptor; +: log Pe > −6.5; ++: log Pe > −5.5; +++: log Pe > −4.5) | Papp (in vitro; [5]): 13.5 ×10⁻⁶ cm/s
